Patent US8247211B2, “Glycopeptide antibiotics” (American Cyanamid Company, priority 2001, dated 2012)
≈ marks a conversion by molar mass, not a printed value.

Legend:
Assay in all cases: In vitro antibacterial evaluation: minimum inhibitory concentration (MIC), broth dilution method
Assay type in all cases: cell-based
[1] = system: Enterococcus sp.; conditions: broth dilution, 5×10^5 CFU/mL, 18 hours at 35° C.
Experimental: (§1) The minimum inhibitory concentration (MIC), the lowest concentration of the antibiotic which inhibits growth of the test organism, is determined by the broth dilution method using Muller-Hinton II […] (Baltimore Biological Laboratories) following the recommendations of the National Committee for Clinical Laboratory Standards [Methods for dilution antimicrobial susceptibility tests for bacteria that grow aerobically, approved standard M7-A2, National Committee for Clinical Laboratory Standards, Villanova, Pa].
(§2) An inoculum level of 5×10^5 CFU/mL, and a range of antibiotic concentrations (64-0.06 μg/mL) is used. […] The test organisms include a spectrum of Gram-positive bacteria comprised of Staphylococcus sp., Streptococcus sp. and Enterococcus sp. These organisms include recent clinical isolates that are resistant to methicillin, penicillin and/or vancomycin.

[2] = system: Escherichia coli; conditions: 5×10^5 CFU/mL, 18 hours at 35° C.
Experimental: as §1, §2

[3] = system: Staphylococcus sp.; conditions: for MIC Staphylococcus haemolyticus (GC 4546): strain GC 4546; for MIC Coagulase Negative Staphylococcus (GC 4547): strain GC 4547; for MIC Coagulase Negative Staphylococcus (GC 4551): strain GC 4551; for MIC Coagulase Negative Staphylococcus (GC 6257): strain GC 6257
Experimental: as §1, §2

[4] = system: Streptococcus sp.; conditions: broth dilution, 5×10^5 CFU/mL, 18 hours at 35° C.
Experimental: as §1, §2

[5] = broth dilution, 18 hours at 35° C.

MIC Enterococccus avium (GC 4558) [1]: >64 µg/mL
MIC Enterococccus faecalis (ATCC 29212) [1]: >64 µg/mL
MIC Enterococccus faecalis (GC 2691) [1]: >0.5 µg/mL
MIC Enterococccus faecalis (GC 3059) [1]: >0.5 µg/mL
MIC Enterococccus faecalis (GC 4552) [1]: >0.5 µg/mL
MIC Enterococccus faecalis (GC 4553) [1]: >0.5 µg/mL
MIC Enterococccus faecalis (GC 4554) [1]: >0.5 µg/mL
MIC Enterococccus faecalis (GC 6189) [1]: >64 µg/mL
MIC Enterococccus faecium (GC 2243) [1]: >64 µg/mL
MIC Enterococccus faecium (GC 4556) [1]: >64 µg/mL
MIC Enterococccus faecium (GC 4557) [1]: 0.5 µg/mL (≈ 0.361 µM)
MIC Enterococcus faecalis (GC 2242) [1]: >64 µg/mL
MIC Escherichia coli (ATCC 25922) [2]: >64 µg/mL
MIC Escherichia coli (GC 4559) [2]: >64 µg/mL
MIC Staphylococcus aureus (GC 3051) ([3]; strain GC 3051): 0.5 µg/mL (≈ 0.361 µM)
MIC Staphylococcus aureus (GC 3053) ([3]; strain GC 3053): 0.5 µg/mL (≈ 0.361 µM)
MIC Staphylococcus aureus (GC 4542) ([3]; strain GC 4542): 0.5 µg/mL (≈ 0.361 µM)
MIC Staphylococcus aureus (GC 4544) ([3]; strain GC 4544): 0.5 µg/mL (≈ 0.361 µM)
MIC Staphylococcus aureus (GC 4545) ([3]; strain GC 4545): 0.5 µg/mL (≈ 0.361 µM)
MIC Coagulase Negative Staphylococcus (GC 4547) [3]: 32 µg/mL (≈ 23.1 µM)
MIC Coagulase Negative Staphylococcus (GC 4547) [3, 5]: 32 µg/mL (≈ 23.1 µM)
MIC Coagulase Negative Staphylococcus (GC 4551) [3]: 32 µg/mL (≈ 23.1 µM)
MIC Coagulase Negative Staphylococcus (GC 4551) [3, 5]: 32 µg/mL (≈ 23.1 µM)
MIC Coagulase Negative Staphylococcus (GC 6257) [3]: 16 µg/mL (≈ 11.6 µM)
MIC Coagulase Negative Staphylococcus (GC 6257) [3, 5]: 16 µg/mL (≈ 11.6 µM)
MIC Streptococcus agalactiae (GC 4564) [4]: 0.5 µg/mL (≈ 0.361 µM)
MIC Streptococcus pneumoniae (GC 4565) [4]: 0.12 µg/mL (≈ 0.0867 µM)
MIC Streptococcus pneumonine (ATCC 6301) [4]: 0.12 to 16 µg/mL
MIC Streptococcus pyogenes (GC 4563) [4]: 0.12 µg/mL (≈ 0.0867 µM)
SMILES: CC(c1ccccc1)C1NC(=O)CNC(=O)C(CO)NC(=O)C(C(O)C2CNC(=N)N2C2OC(CO)C(O)C(O)C2O)NC(=O)C(C(O)C2CNC(=N)N2)NC(=O)C(Cc2ccc(OC3OC(CO)C(OC4OC(CO)C(O)C5OC(c6ccccc6)OC45)C(O)C3O)cc2)NC1=O (single isomer, unassigned) [Example 104a, Cyclo[glycyl-β-methylphenylalanyl-O-[4-O-(2,3-O-benzylidenehexopyranosyl)hexopyranosyl]-tyrosyl-3-(2-iminoimidazolidin-4-yl)seryl-3-(3-hexopyranosyl-2-iminoimidazolidin-4-yl)-serylseryl]]
MIC Staphylococcus haemolyticus (GC 4546) [3]: 32 µg/mL (≈ 23.1 µM)
MIC Staphylococcus haemolyticus (GC 4546) [3, 5]: 32 µg/mL (≈ 23.1 µM)
